From patent US20140343000A1 (priority 2011, published 2014)

Test system: recombinant NL4-3 virus (Renilla luciferase in nef, Gag P373S; NLRluc) in MT-2 cells
Assay: whole plant or invertebrate
Assay type: cell-based, HIV
Conditions: Renilla, NL43
Summary of the method: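 Virus from 293T transfection, titered in MT-2 by luciferase. MT-2 (RPMI, 10% HI-FBS) infected ± inhibitor serial dilutions, 4-5 d. Readout: Dual Luciferase premix (lysis:reagent:Stop & Glo 2:1:1), immediate luminescence.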

| Compound | EC50 |
| --- | --- |
| C=C(C)[C@@H]1CC[C@]2(NCCNc3cccnn3)CC[C@]3(C)[C@H](CC[C@@H]4[C@@]5(C)CC=C(c6ccc(C(=O)O)cc6)C(C)(C)[C@@H]5CC[C@]43C)[C@@H]12 [Example 200, 4-((1R,3aS,5aR,5bR,7aR,11aS,11bR,13aR,13bR)-5a,5b,8,8,11a-pentamethyl-1-(prop-1-en-2-yl)-3a-(2-(pyridazin-3-ylamino)ethylamino)-2,3,3a,4,5,5a,5b,6,7,7a,8,11,11a,11b,12,13,13a,13b-octadecahydro-1H-cyclopenta[a]chrysen-9-yl)benzoic acid] | < 100 nM |
| C=C(C)[C@@H]1CC[C@]2(N3CC3)CC[C@]3(C)[C@H](CC[C@@H]4[C@@]5(C)CC=C(c6ccc(C(=O)O)cc6)C(C)(C)[C@@H]5CC[C@]43C)[C@@H]12 [Example 173, 4-((1R,3aS,5aR,5bR,7aR,11aS,11bR,13bR)-3a-(aziridin-1-yl)-5a,5b,8,8,11a-pentamethyl-1-(prop-1-en-2-yl)-2,3,3a,4,5,5a,5b,6,7,7a,8,11,11a,11b,12,13,13a,13b-octadecahydro-1H-cyclopenta[a]chrysen-9-yl)benzoic acid] | < 100 nM |

Same assay, conditions: Renilla, NL43, luciferase activity in cells infected for 4-5 days with NLRluc recombinants, serial dilutions of inhibitor; class symbols (key in Table 1); read-out: EC50

| Compound | EC50 |
| --- | --- |
| C=C(C)[C@@H]1CC[C@]2(NCCN3CCN(S(=O)(=O)N(CC)CC)CC3)CC[C@]3(C)[C@H](CC[C@@H]4[C@@]5(C)CC=C(c6ccc(C(=O)O)cc6)C(C)(C)[C@@H]5CC[C@]43C)[C@@H]12 [Example B37, 4-((1R,3aS,5aR,5bR,7aR,11aS,11bR,13aR,13bR)-3a-((2-(4-(N,N-diethylsulfamoyl)piperazin-1-yl)ethyl)amino)-5a,5b,8,8,11a-pentamethyl-1-(prop-1-en-2-yl)-2,3,3a,4,5,5a,5b,6,7,7a,8,11,11a,11b,12,13,13a,13b-octadecahydro-1H-cyclopenta[a]chrysen-9-yl)benzoic acid] | < 100 nM |
| C=C(C)[C@@H]1CC[C@]2(NCC3CC3C(=O)O)CC[C@]3(C)[C@H](CC[C@@H]4[C@@]5(C)CC=C(c6ccc(C(=O)O)cc6)C(C)(C)[C@@H]5CC[C@]43C)[C@@H]12 (stereo partly drawn) [Example 157, 4-((1R,3aS,5aR,5bR,7aR,11aS,11bR,13aR,13bR)-3a-((2-carboxycyclopropyl)methylamino)-5a,5b,8,8,11a-pentamethyl-1-(prop-1-en-2-yl)-2,3,3a,4,5,5a,5b,6,7,7a,8,11,11a,11b,12,13,13a,13b-octadecahydro-1H-cyclopenta[a]chrysen-9-yl)benzoic acid] | < 100 nM |
| C=C(C)[C@@H]1CC[C@]2(NCCNS(=O)(=O)C(C)C)CC[C@]3(C)[C@H](CC[C@@H]4[C@@]5(C)CC=C(c6ccc(C(=O)O)cc6)C(C)(C)[C@@H]5CC[C@]43C)[C@@H]12 [Example B30, 4-((1R,3aS,5aR,5bR,7aR,11aS,11bR,13aR,13bR)-5a,5b,8,8,11a-pentamethyl-3a-((2-(1-methylethylsulfonamido)ethyl)amino)-1-(prop-1-en-2-yl)-2,3,3a,4,5,5a,5b,6,7,7a,8,11,11a,11b,12,13,13a,13b-octadecahydro-1H-cyclopenta[a]chrysen-9-yl)benzoic acid] | < 100 nM |
| CC(C)[C@@H]1CC[C@]2(NCCN3CCS(=O)(=O)CC3)CC[C@]3(C)[C@H](CC[C@@H]4[C@@]5(C)CC[C@H](c6ccc(C(=O)O)cc6)C(C)(C)[C@@H]5CC[C@]43C)[C@@H]12 [Example B2, 4-((1S,3aS,5aR,5bR,7aS,9S,11aS,11bR,13aR,13bR)-3a-((2-(1,1-dioxidothiomorpholino)ethyl)amino)-1-isopropyl-5a,5b,8,8,11a-pentamethylicosahydro-1H-cyclopenta[a]chrysen-9-yl)benzoic acid] | < 100 nM |
| C=C(C)[C@@H]1CC[C@]2(NCCN3CCN(C)CC3)CC[C@]3(C)[C@H](CC[C@@H]4[C@@]5(C)CC=C(c6ccc(C(=O)O)cc6)C(C)(C)[C@@H]5CC[C@]43C)[C@@H]12 [Example B28, 4-((1R,3aS,5aR,5bR,7aR,11aS,11bR,13aR,13bR)-5a,5b,8,8,11a-pentamethyl-3a-((2-(4-methylpiperazin-1-yl)ethyl)amino)-1-(prop-1-en-2-yl)-2,3,3a,4,5,5a,5b,6,7,7a,8,11,11a,11b,12,13,13a,13b-octadecahydro-1H-cyclopenta[a]chrysen-9-yl)benzoic acid] | < 100 nM |
| C=C(C)[C@@H]1CC[C@]2(NCCN3CCOCC3)CC[C@]3(C)[C@H](CC[C@@H]4[C@@]5(C)CC=C(c6ccc(C(=O)O)c(F)c6)C(C)(C)[C@@H]5CC[C@]43C)[C@@H]12 [Example A3, 2-fluoro-4-((1R,3aS,5aR,5bR,7aR,11aS,11bR,13aR,13bR)-5a,5b,8,8,11a-pentamethyl-3a-(2-morpholinoethylamino)-1-(prop-1-en-2-yl)-2,3,3a,4,5,5a,5b,6,7,7a,8,11,11a,11b,12,13,13a,13b-octadecahydro-1H-cyclopenta[a]chrysen-9-yl)benzoic acid] | < 100 nM |
| C=C(C)[C@@H]1CC[C@]2(NC(=O)NCC(=O)O)CC[C@]3(C)[C@H](CC[C@@H]4[C@@]5(C)CC=C(c6ccc(C(=O)O)cc6)C(C)(C)[C@@H]5CC[C@]43C)[C@@H]12 [Example 16, 4-((1R,3aS,5aR,5bR,7aR,11aS,11bR,13aR,13bR)-3a-(3-(carboxymethyl)ureido)-5a,5b,8,8,11a-pentamethyl-1-(prop-1-en-2-yl)-2,3,3a,4,5,5a,5b,6,7,7a,8,11,11a,11b,12,13,13a,13b-octadecahydro-1H-cyclopenta[a]chrysen-9-yl)benzoic acid] | < 100 nM |
| C=C(C)[C@@H]1CC[C@]2(NCC(=O)NC(C)C)CC[C@]3(C)[C@H](CC[C@@H]4[C@@]5(C)CC=C(c6ccc(C(=O)O)cc6)C(C)(C)[C@@H]5CC[C@]43C)[C@@H]12 [Example 150, 4-((1R,3aS,5aR,5bR,7aR,11aS,11bR,13aR,13bR)-3a-(2-(isopropylamino)-2-oxoethylamino)-5a,5b,8,8,11a-pentamethyl-1-(prop-1-en-2-yl)-2,3,3a,4,5,5a,5b,6,7,7a,8,11,11a,11b,12,13,13a,13b-octadecahydro-1H-cyclopenta[a]chrysen-9-yl)benzoic acid] | < 100 nM |
| CC(C)[C@@H]1CC[C@]2(NCCCN3CCOCC3)CC[C@]3(C)[C@H](CC[C@@H]4[C@@]5(C)CC=C(c6ccc(C(=O)O)cc6)C(C)(C)[C@@H]5CC[C@]43C)[C@@H]12 [Example B11, 4-((1S,3aS,5aR,5bR,7aR,11aS,11bR,13aR,13bR)-1-isopropyl-5a,5b,8,8,11a-pentamethyl-3a-((3-morpholinopropyl)amino)-2,3,3a,4,5,5a,5b,6,7,7a,8,11,11a,11b,12,13,13a,13b-octadecahydro-1H-cyclopenta[a]chrysen-9-yl)benzoic acid] | < 100 nM |
| C=C(C)[C@@H]1CC[C@]2(NC(=O)N(CCCOC)CCN3CCS(=O)(=O)CC3)CC[C@]3(C)[C@H](CC[C@@H]4[C@@]5(C)CC=C(c6ccc(C(=O)O)cc6)C(C)(C)[C@@H]5CC[C@]43C)[C@@H]12 [Example 68, 4-((1R,3aS,5aR,5bR,7aR,11aS,11bR,13aR,13bR)-3a-(((2-(1,1-dioxido-4-thiomorpholinyl)ethyl)(3-methoxypropyl)carbamoyl)amino)-1-isopropenyl-5a,5b,8,8,11a-pentamethyl-2,3,3a,4,5,5a,5b,6,7,7a,8,11,11a,11b,12,13,13a,13b-octadecahydro-1H-cyclopenta[a]chrysen-9-yl)benzoic acid] | < 100 nM |
| C=C(C)[C@@H]1CC[C@]2(NC(=O)C(C(C)C)N3CCS(=O)(=O)CC3)CC[C@]3(C)[C@H](CC[C@@H]4[C@@]5(C)CC=C(c6ccc(C(=O)O)cc6)C(C)(C)[C@@H]5CC[C@]43C)[C@@H]12 (single isomer, unassigned) [Example 110] | < 100 nM |

Same assay, conditions: Renilla, NL43, luciferase activity in cells infected for 4-5 days with NLRluc recombinants, serial dilutions of inhibitor; numeric values; read-out: EC50

| Compound | EC50 |
| --- | --- |
| C=C(C)[C@@H]1CC[C@]2(N(CCN3CCCC3)CCN3CCCC3)CC[C@]3(C)[C@H](CC[C@@H]4[C@@]5(C)CC=C(c6ccc(C(=O)O)cc6)C(C)(C)[C@@H]5CC[C@]43C)[C@@H]12 [Example 167, 4-((1R,3aS,5aR,5bR,7aR,11aS,11bR,13aR,13bR)-3a-(bis(2-(pyrrolidin-1-yl)ethyl)amino)-5a,5b,8,8,11a-pentamethyl-1-(prop-1-en-2-yl)-2,3,3a,4,5,5a,5b,6,7,7a,8,11,11a,11b,12,13,13a,13b-octadecahydro-1H-cyclopenta[a]chrysen-9-yl)benzoic acid] | 4 nM |
| C=C(C)[C@@H]1CC[C@]2(NCC(OC)OC)CC[C@]3(C)[C@H](CC[C@@H]4[C@@]5(C)CC=C(c6ccc(C(=O)O)cc6)C(C)(C)[C@@H]5CC[C@]43C)[C@@H]12 [Example 156, 4-((1R,3aS,5aR,5bR,7aR,11aS,11bR,13aR,13bR)-3a-(2,2-dimethoxyethylamino)-5a,5b,8,8,11a-pentamethyl-1-(prop-1-en-2-yl)-2,3,3a,4,5,5a,5b,6,7,7a,8,11,11a,11b,12,13,13a,13b-octadecahydro-1H-cyclopenta[a]chrysen-9-yl)benzoic acid] | 120 nM |
| C=C(C)[C@@H]1CC[C@]2(N(C)C)CC[C@]3(C)[C@H](CC[C@@H]4[C@@]5(C)CC=C(c6ccc(C(=O)O)cc6)C(C)(C)[C@@H]5CC[C@]43C)[C@@H]12 [Example 177, 4-((1R,3aS,5aR,5bR,7aR,11aS,11bR,13aR,13bR)-3a-(dimethylamino)-5a,5b,8,8,11a-pentamethyl-1-(prop-1-en-2-yl)-2,3,3a,4,5,5a,5b,6,7,7a,8,11,11a,11b,12,13,13a,13b-octadecahydro-1H-cyclopenta[a]chrysen-9-yl)benzoic acid] | 9 nM |
